Data from patent US9950062B2, “Compounds and compositions as TLR activity modulators” (priority 2009, dated 2018).

Assays:
[1] = Adsorption to aluminum hydroxide, LC-MS/MS of supernatant
Experimental: The resulting solution was diluted 10-fold with blank histidine buffer to a final compound concentration of 0.1 mg/mL. Diluted solutions were incubated at 37° C. for 5 hours. The samples were centrifuged at 14,000 rpm for 10 minutes to pellet the insoluble. The supernatant (along with an internal standard) was then evaluated by LC-MS/MS using a ballistic gradient (from 5% CH3CN-0.5% formic acid to 95% CH3CN-1.0% formic acid in 3.5 minutes) on a Waters Atlantis dC18 (50 mm×2.1 mm) column at room temperature against a calibration curve prepared at known compound concentrations ranging from 0.005 to 50 μM. The concentration in the supernatant was calculated as % unbound to alum compared to control; the % bound to alum was calculated as 100% minus % unbound.

[2] = Adsorption to and desorption from aluminum hydroxide, HPLC (compound-modified alum formulation); assay type: physicochemical; conditions: alum formulation as for compound 1
Experimental: SDS-PAGE was used to evaluate the effect of the binding of compound 1 to aluminum hydroxide adjuvant on the ability of MenB antigens to bind to aluminum hydroxide adjuvant. Compound 1 was dissolved in 10 mM NaOH at 0.5 mg/ml final concentration. Alum and Compound 1 were combined at 1:6 (Compound 1:Alum) weight ratio in the presence of 10 mM Histidine final concentration. The pH was adjusted to 9.2 and the mixture was gently agitated for 3 hours at room temperature, allowing the reaction to occur. The mixture was centrifuged at 5000×g for 10 minutes and the supernatant discarded. The pellet (i.e. the compound 1-modified Alum) was resuspended in the initial Alum buffer to obtain the starting alum concentration. The pH was adjusted to 6.5. The modified Alum was then used for the formulation with the MenB antigens.
The adsorption of compound 16 and compound 17 to aluminum hydroxide was also evaluated using the alum formulation described above for compound 1. […] In addition, SDS-PAGE analysis of antigen binding in the presence of compound 16 or compound 17 was carried out as described above.

[3] = Muscle levels 24 hours after intramuscular injection; conditions: 24 hours after intramuscular injection (100 μg) with protein antigens, Balb/C mice
[4] = Binding to aluminum hydroxide adjuvant, HPLC of supernatant; assay type: physicochemical; conditions: 100 μg/dose, room temperature and 37° C., 1, 5 and 24 hours
Experimental: The binding of the compounds of Formula (I) provided herein to aluminum-containing adjuvants at pH 9 and pH 6.5 was evaluated using HPLC to monitor the presence of the compound of Formula (I) in the supernatant.
(§1) Compound 1 (0.5 mg/mL) was dissolved in 10 mM NaOH and added to aluminum hydroxide adjuvant (2 mg/mL) resulting in a 100 μg/dose formulation. The supernatant was evaluated with HPLC using a ballistic gradient (from 10% CH3CN-0.1% TFA to 100% CH3CN-0.1% TFA in 2.5 minutes) on a C18 ([…]×4.6 mm) ACE column at 45° C. To evaluate the effect of supernatant temperature and incubation time on binding, the supernatant was evaluated at a supernatant temperature of room temperature and at 37° C. after 1 hour, 5 hours and 24 hours. A control without aluminum hydroxide was also evaluated.
as §1, with “Compound 5 (1” for “Compound 1 (0.5”, “to aluminium” for “to aluminum”
as §1, with “to aluminium” for “to aluminum”, “formulation. The pH of the solution was adjusted to pH 6.5 using HCl.” for “formulation.”
as §1, with “Compound 5 (1” for “Compound 1 (0.5”, “mM histidine buffer (1 mg/mL)” for “mM NaOH”, “to aluminium” for “to aluminum”

[5] = Systemic serum exposure after intramuscular injection; assay type: in vivo; conditions: intramuscular injection 100 μg (4 mg/kg), Balb/C mice
Experimental: Systemic serum exposure of the compounds is followed for 24 hours.

[6] = 10 mM histidine buffer pH 6.8, final compound concentration 0.1 mg/mL, 37° C. for 5 hours, 100% minus % unbound
[7] = with aluminium hydroxide adjuvant
[8] = without aluminium hydroxide adjuvant

% bound to alum ([1]; 5 h, 0.1 mg/mL, pH 6.8) [%] | SMILES | % bound to alum [1, 6] [%] | compound in supernatant after addition of aluminum hydroxide (HPLC) [2] | muscle level of compound [3, 7] | muscle level of compound [3, 8] | presence of compound in supernatant when aluminum hydroxide included (HPLC) ([4]; pH 6.7, 10 mM histidine buffer, aluminium hydroxide 2 mg/mL) | presence of compound in supernatant when aluminum hydroxide included (HPLC) ([4]; pH 9, 10 mM NaOH, aluminum hydroxide 2 mg/mL) | serum concentration profile over 24 hours ([5]; adsorbed to aluminium hydroxide adjuvant) | serum concentration profile over 24 hours ([5]; unadsorbed (buffer alone))
– | Cc1cc(OCCOCCOCCC(F)(F)P(=O)(O)O)ccc1CCc1cnc2c(N)nc3cc(CCC(=O)O)ccc3c2c1 [Compound 17, 3-(5-amino-2-(4-(2-(2-(3,3-difluoro-3-phosphonopropoxy)ethoxy)ethoxy)-2-methylphenethyl)benzo[f][1,7]naphthyridin-8-yl)propanoic acid] | 96.2 | no compound was observed in the supernatant | readily detected | undetectable | – | – | – | –
96.0 | Cc1cc(OCCOCCC(F)(F)P(=O)(O)O)ccc1CCc1cnc2c(N)nc3cc(CCC(=O)O)ccc3c2c1 [Compound 19, 3-(5-amino-2-(4-(2-(3,3-difluoro-3-phosphonopropoxy)ethoxy)-2-methylphenethyl)benzo[f][1,7]naphthyridin-8-yl)propanoic acid] | – | – | – | – | – | – | – | –
– | Cc1ccc2c(c1)nc(N)c1ncc(CCc3ccc(OCCCC(F)(F)P(=O)(O)O)cc3C)cc12 [Compound 5, 4-(4-(2-(5-amino-8-methylbenzo[f][1,7]naphthyridin-2-yl)ethyl)-3-methylphenoxy)-1,1-difluorobutylphosphonic acid] | – | – | – | – | not present in the supernatant | not present in the supernatant | – | –
– | Cc1cc(OCCCC(F)(F)P(=O)(O)O)ccc1CCc1cnc2c(N)nc3cc(CCC(=O)O)ccc3c2c1 [Compound 16, 3-(5-amino-2-(4-(4,4-difluoro-4-phosphonobutoxy)-2-methylphenethyl)benzo[f][1,7]naphthyridin-8-yl)propanoic acid] | 94.5 | no compound was observed in the supernatant | readily detected | undetectable | – | – | much flatter response which is sustained for a longer period | high initial serum concentration which rapidly declines
